The term IC50 denotes the midpoint of a concentration-inhibition curve. Low readings indicate greater potency in that assay, high ones weaker potency in that assay.

Where only a bound is given, the exact number is not on record here.

The target of assay [1] is T1, Aurora-C (Homo sapiens, UniProt Q9UQB9).
T1 construct: made in house; host or cells: transiently transfected HEK293 cells
T1 sequence (Q9UQB9 1-309): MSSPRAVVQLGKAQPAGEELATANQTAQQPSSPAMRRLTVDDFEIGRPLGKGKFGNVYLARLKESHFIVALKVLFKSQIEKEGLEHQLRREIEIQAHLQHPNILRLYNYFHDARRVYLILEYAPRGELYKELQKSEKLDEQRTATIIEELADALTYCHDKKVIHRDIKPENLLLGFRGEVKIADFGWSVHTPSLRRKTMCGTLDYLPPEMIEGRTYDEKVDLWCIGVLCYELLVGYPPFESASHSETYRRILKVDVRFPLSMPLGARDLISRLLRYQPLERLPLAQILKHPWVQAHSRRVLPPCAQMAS
Nature of the assay: Aurora-C kinase assay. The assay is classed as biochemical. The following applies: 3 μM ATP, 22° C., 90 min.

Assay [2] addresses T2, CDK1/CycB (Homo sapiens, UniProt P06493).
T2 construct: GST; purchased ProQinase GmbH, Freiburg; host or cells: baculovirus-infected insect cells (Sf9)
Nature of the assay: CDK1/CycB kinase assay. The note with it: 0.5 μM ATP, histone IIIS, 22° C., 10 min. The assay is classed as biochemical.

Assay [3] concerns the target T3, CDK2/CycE (Homo sapiens, UniProt P24941).
T3 construct: GST; purchased ProQinase GmbH, Freiburg; host or cells: baculovirus-infected insect cells (Sf9)
In words: CDK2/CycE kinase assay. The format is biochemical. The following applies: 0.5 μM ATP, histone IIIS, 22° C., 10 min.

In assay [4] the target is T4, KDR (VEGFR2) (Homo sapiens, UniProt P35968).
T4 construct: made in house; host or cells: E. coli
In words: KDR kinase assay. The following applies: 10 μM ATP, 22° C., 45 min, HTRF. The format is biochemical. Background: Time-resolved FRET reads energy transfer from a long-lived donor to a nearby acceptor.

In assay [5] the test system is MCF7 breast tumour cells. Nature of the assay: MCF7 proliferation assay. The following applies: Homo sapiens, MCF7, 96 h; 4 days incubation, crystal violet staining. The assay is classed as cell-based, human.

T2 sequence (P06493 whole entry): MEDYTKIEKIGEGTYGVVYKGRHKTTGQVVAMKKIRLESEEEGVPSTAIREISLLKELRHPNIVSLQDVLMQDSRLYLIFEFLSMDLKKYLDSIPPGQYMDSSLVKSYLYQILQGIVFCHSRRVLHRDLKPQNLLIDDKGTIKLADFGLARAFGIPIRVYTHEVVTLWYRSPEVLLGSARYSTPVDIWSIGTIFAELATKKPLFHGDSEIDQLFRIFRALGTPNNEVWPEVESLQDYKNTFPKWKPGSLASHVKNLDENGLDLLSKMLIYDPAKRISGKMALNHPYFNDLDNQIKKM
T2 sequence (P14635 whole entry partner): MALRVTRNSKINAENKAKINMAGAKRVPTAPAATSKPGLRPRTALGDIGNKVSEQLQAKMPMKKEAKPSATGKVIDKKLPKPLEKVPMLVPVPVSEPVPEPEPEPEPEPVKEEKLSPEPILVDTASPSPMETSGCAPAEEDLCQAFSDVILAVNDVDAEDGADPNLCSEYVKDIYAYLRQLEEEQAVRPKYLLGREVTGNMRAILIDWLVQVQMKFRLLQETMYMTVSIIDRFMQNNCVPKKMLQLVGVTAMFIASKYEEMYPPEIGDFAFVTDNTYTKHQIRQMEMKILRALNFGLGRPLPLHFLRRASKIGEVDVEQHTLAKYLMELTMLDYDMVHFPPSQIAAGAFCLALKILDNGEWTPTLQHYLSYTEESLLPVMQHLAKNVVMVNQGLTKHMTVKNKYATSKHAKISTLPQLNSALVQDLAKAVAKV
T4 sequence (P35968 20-1356, species assumed): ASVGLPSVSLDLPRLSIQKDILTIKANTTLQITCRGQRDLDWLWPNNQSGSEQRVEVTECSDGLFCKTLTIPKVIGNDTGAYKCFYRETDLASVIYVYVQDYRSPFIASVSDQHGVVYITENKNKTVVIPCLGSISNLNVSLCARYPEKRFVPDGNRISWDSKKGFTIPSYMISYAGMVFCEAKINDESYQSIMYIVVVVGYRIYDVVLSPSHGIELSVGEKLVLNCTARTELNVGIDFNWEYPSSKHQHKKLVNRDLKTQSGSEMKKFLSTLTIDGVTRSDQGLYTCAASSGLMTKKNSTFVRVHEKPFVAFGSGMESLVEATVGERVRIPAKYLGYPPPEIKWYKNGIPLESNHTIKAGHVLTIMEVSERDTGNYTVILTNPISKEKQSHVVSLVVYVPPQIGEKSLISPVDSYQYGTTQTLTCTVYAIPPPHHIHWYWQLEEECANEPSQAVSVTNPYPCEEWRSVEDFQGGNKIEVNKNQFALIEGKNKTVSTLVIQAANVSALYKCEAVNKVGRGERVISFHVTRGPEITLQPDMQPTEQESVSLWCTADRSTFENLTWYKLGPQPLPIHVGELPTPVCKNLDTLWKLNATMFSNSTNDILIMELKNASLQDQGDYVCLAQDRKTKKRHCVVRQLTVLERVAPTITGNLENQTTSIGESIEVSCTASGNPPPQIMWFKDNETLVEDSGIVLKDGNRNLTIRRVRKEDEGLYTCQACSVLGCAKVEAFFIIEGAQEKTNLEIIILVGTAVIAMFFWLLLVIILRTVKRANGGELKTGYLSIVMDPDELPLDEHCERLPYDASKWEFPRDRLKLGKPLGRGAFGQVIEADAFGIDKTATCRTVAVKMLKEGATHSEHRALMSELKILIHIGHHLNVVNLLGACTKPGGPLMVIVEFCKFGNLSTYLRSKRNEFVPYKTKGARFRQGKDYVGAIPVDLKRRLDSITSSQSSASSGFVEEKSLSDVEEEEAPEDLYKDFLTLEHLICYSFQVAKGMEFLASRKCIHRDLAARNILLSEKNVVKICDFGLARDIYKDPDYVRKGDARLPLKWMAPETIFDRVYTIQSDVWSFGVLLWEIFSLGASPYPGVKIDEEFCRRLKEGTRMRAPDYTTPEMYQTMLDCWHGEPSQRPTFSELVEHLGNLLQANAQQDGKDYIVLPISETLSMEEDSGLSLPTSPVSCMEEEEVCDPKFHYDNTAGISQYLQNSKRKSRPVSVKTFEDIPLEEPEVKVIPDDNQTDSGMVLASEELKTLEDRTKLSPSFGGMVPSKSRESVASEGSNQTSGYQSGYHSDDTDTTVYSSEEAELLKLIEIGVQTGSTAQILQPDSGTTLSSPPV

For the compound `Cc1ccc(S(=O)(=O)N=S(C)c2ccc(Nc3ncc(Br)c(NC(C)C)n3)cc2)cc1` (racemic) [Example 1, (RS)—S-(4-{[5-Bromo-4-(isopropylamino)pyrimidin-2-yl]amino}phenyl)-S-methyl-N-(tolylsulphonyl)sulphimide], the half-inhibitory concentration (IC50) in assay [1] was 0.24 µM; in assay [2], > 1 µM; in assay [3], 0.9 µM; in assay [4], 0.037 µM; in assay [5] it was 2.2 µM.

These data come from patent US7943629B2, “Sulphimides as protein kinase inhibitors” (Bayer Schering Pharma AG, priority 2006, dated 2011).
